Literature values as cited in patent EP3051247B1, “CHEMICAL CLEANING PROCEDURE FOR HEAT EXCHANGERS” (GD Energy Services S.a.r.l., priority 2013, dated 2015).

Conditions: for pKa1: first acid dissociation step (AH3 → AH2^- + H^+; BH2 → BH^- + H^+); for pKa2: second acid dissociation step (AH2^- → AH^2- + H^+; BH^- → B^2- + H^+)

pKa1 | pKa2 | pKa3 (third acid dissociation step (AH^2- → A^3- + H^+)) | SMILES
pKa1 = 4.1 | pKa2 = 11.4 |  | O=C1O[C@H]([C@@H](O)CO)C(O)=C1O [Ascorbic acid]
pKa1 = 3.15 | pKa2 = 4.77 | pKa3 = 6.40 | O=C(O)CC(O)(CC(=O)O)C(=O)O [Citric acid]
